{"source": "patent US11046798B2", "about": "“Phosphono-phosphate containing compounds and polymers” (The Procter & Gamble Company, priority 2017, dated 2021)", "key": {"[1]": {"experiment": "Powder Stain Prevention Model (PSPM)", "from_the_text": "The Powder Stain Prevention Model (PSPM) is a screening technique where hydroxyapatite powder (HAP) is used as a substrate for stain accumulation. The general purpose of this technique is to illustrate and quantify the stain prevention ability or staining potential of chemical agents used in oral care. Hydroxyapatite powder provides a large surface area to which tea chromogens adsorb. Pretreatment of HAP with oral care actives, either in rinse or dentifrice form, results in different levels of stain accumulation depending upon the ability of the actives to block or enhance the binding of these chromogens onto HAP surface. The magnitude of stain can then be quantified by image analysis.\nTube is vortexed for 30 seconds to fully suspend HAP in treatment followed by centrifugation at 15,000 rpm for 15 mins. After centrifugation, supernatant is decanted and pellet redistributed by adding 25 ml of water, vortexing, centrifuging at 15,000 rpm for 15 mins, and decanting-making sure pellet breaks up during vortexing. The wash cycle is repeated two more times.\nAfter final water wash, 20 ml of filtered tea (1 Lipton tea bag per 100 ml of hot water seeped for 5 minutes, filtered and used at 50° C.) is added to each pellet and vortexed for 30 seconds to fully suspend HAP in tea. Powder suspension is centrifuged at 15,000 rpm for 15 mins and decanted. About 25 ml of water is added to the tube, vortexed and then centrifuging at 15,000 rpm for 15 mins. The liquid is decanted and wash cycle is repeated 2 more times.\nVortex pellet in approximately 10 ml of water until fully suspended followed by filtering under vacuum onto a Millipore filter disk (Membrane Filters 4.5 μm, 47 mm Catalog #HAWP04700, Millipore Corporation, Bedford, Mass.). Prepare a control disk using. −200 mg of untreated, unstained HAP. Filter disks are then dried overnight in flat position and then laminated.\nWhitelight system: HAP disk (untreated HAP control and HAP treatments) is placed in a stabilized sample holder. The color is measured using a digital camera having a lens equipped with a polarizer filter (Camera model no. CANON EOS 70D from Canon Inc., Melville, N.Y. with NIKON 55 mm micro-NIKKOR lens with adapter). The light system is provided by Dedo lights (model number DLH2) equipped with 150 watt, 24V bulbs model number (Xenophot model number HL X64640), positioned about 30 cm apart (measured from the center of the external circular surface of one of the glass lens through which the light exits to the other) and aimed at a 45 degree angle such that the light paths meet on the HAP disk. Image analysis is performed using Whitelight with Ultragrab, Optimas and Giant Imaging software.\nUsual controls for a single polymer PSPM are water as a treatment followed by exposure to tea, and water without exposure to tea. […]"}, "[2]": {"experiment": "Powder Stain Removal Model (PSRM)", "from_the_text": "The Powder Stain Removal Model (PSRM) is a screening technique where hydroxyapatite powder (HAP) is used as a substrate for stain accumulation. The purpose of this technique is to illustrate and quantify the stain removal properties of chemical agents used in oral care. Hydroxyapatite powder provides a large surface area to which tea chromogens adsorb. […] The magnitude of stain removal can then be quantified by image analysis. A trial of this model can be completed in three days. Steps involved in PSRM are described below.\nPrepare large batch of tea stain HAP by stirring 10 g of HAP powder in 200 ml of filtered tea for 5 minutes. Divide into centrifuge tubes and centrifuge at 15,000 rpm for 15 mins. Wash pellet by adding in 25 ml of water, vortexing, centrifuging at 15,000 rpm for 15 mins, and pipet out liquid. Make sure pellet breaks up during vortexing. Repeat wash.\nPlace centrifuge tubes in convection oven (55-65° C.) overnight to dry stained HAP. Once dried, pool stained HAP together and grind to a fine powder with pestle and mortar.\nTube is vortexed for I minute to fully suspend HAP in treatment followed by centrifugation at 15,000 rpm for 15 mins. After centrifugation, supernatant is decanted and pellet redistributed by adding 25 ml of water, vortexing, centrifuging at 15,000 rpm for 15 mins, and decanting-making sure pellet breaks up during vortexing. The wash cycle is repeated one more time.\nVortex pellet in approximately 10 ml of water until fully suspended followed by filtering under vacuum onto a Millipore filter disk (Membrane Filters 4.5 μm, 47 mm Catalog #HAWP04700, Millipore Corporation, Bedford, Mass.). Prepare a control disk using=200 mg of untreated, stained HAP. Filter disks are then dried overnight in flat position and then laminated.\nWhitelight system: HAP disk (untreated HAP control and HAP treatments) is placed in a stabilized sample holder. The color is measured using a digital camera camera having a lens equipped with a polarizer filter (Camera model no. CANON EOS 70D from Canon Inc., Melville, N.Y. with NIKON 55 mm micro-NIKKOR lens with adapter). The light system is provided by Dedo lights (model number DLH2) equipped with 150 watt, 24V bulbs model number (Xenophot model number HL X64640), positioned about 30 cm apart (measured from the center of the external circular surface of one of the glass lens through which the light exits to the other) and aimed at a 45 degree angle such that the light paths meet on the HAP disk. Image analysis is performed using Whitelight with Ultragrab, Optimas and Giant Imaging software.\nUsual controls for a single polymer PSRM are water as a treatment followed by exposure to tea, and water without exposure to tea. Additionally, pyrophosphate and polyphosphate are run as internal controls. […]"}}, "note": "Several values for one entry are separate records, joined by “and”; a condition that tells them apart may be missing. Equal values may be shown once.", "data": [{"compound": "O=P(O)(O)OP(=O)(O)O", "note": "[Pyrophosphate]", "values": [{"measurement": "Delta L", "setting": "[1]", "value": 16.3}, {"measurement": "PSPM (ΔL)", "setting": "[1]", "value": "12.2-16.0"}, {"measurement": "PSPM ΔL", "setting": "[1]", "value": "18.0 and 14.3"}, {"measurement": "Delta L", "setting": "[2]", "value": 14.2}, {"measurement": "PSRM (ΔL)", "setting": "[2]", "value": "13.0-18"}, {"measurement": "PSRM ΔL", "setting": "[2]", "value": "12.4 and 13.5"}]}]}
